Measurements: patent publication US20120046273A1, “COMPOUNDS AND COMPOSITIONS FOR COGNITION-ENHANCEMENT, METHODS OF MAKING, AND METHODS OF TREATING” (MITHRIDION, INC., priority 2009, published 2012)

Assays:
[1] = molecular target: T1, human muscarinic M1 receptors (Homo sapiens, UniProt P11229); assay: Inositol phosphate production in huM1/A9L cells (IPOne TR-FRET); assay type: cell-based; conditions: for huM1/A9L Smax: percentage of maximal stimulation by carbachol; for huM1/A9L ED50 relative to CCh: potency relative to carbachol
T1 construct: expressed in transfected cells; host or cells: A9L cells (gift from Professor W Messer)
T1 sequence (P11229 1-460): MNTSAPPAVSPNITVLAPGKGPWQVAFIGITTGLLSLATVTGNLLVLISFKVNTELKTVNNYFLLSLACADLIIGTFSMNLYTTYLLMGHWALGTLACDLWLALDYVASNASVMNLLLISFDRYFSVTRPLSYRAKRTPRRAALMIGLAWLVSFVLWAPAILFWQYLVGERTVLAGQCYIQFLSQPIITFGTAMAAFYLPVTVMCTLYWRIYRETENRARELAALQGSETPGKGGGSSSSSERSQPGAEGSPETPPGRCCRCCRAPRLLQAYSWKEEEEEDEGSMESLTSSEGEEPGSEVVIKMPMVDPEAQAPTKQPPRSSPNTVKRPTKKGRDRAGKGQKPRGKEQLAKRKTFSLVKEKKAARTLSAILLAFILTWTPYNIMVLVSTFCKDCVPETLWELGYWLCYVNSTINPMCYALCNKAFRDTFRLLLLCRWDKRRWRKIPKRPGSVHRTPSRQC
Protocol: (§1) Muscarinic M1 and M3 agonist activity was evaluated by measuring the stimulation of inositol phosphate (IP) production in the presence of lithium chloride from A9L cells transfected with expression plasmids containing human muscarinic M1 and M3 receptors, respectively. The cell lines were a gift from Professor W Messer, and the methods were as described in Tejada F R et al. J. Med. Chem. 2006; 49: 7518-31 except that the assay was scaled down to run in 384 well plates, and IP was measured in the cell lysates using the non-isotopic IPOne TR-FRET assay (CIS-BIO, Inc).
(§2) Cells were grown to 90% confluence in 384 well hi-base plates (Greiner Bio-One), compounds were added at suitable concentrations in growth medium containing 10 mM LiCL, buffered with an extra 10 mM HEPES (pH7.4), and incubated for 60 minutes at 37° C. Cells were lysed and assayed for IP following the manufacturer's instructions.
(§3) The value for a full agonist is 100%, while partial agonists give values below 100%.

[2] = molecular target: T2, human muscarinic M3 receptors (Homo sapiens, UniProt P20309); assay: Inositol phosphate production in huM3/A9L cells (IPOne TR-FRET); assay type: cell-based; conditions: for huM3/A9L Smax: percentage of maximal stimulation by carbachol; for huM3/A9L ED50 relative to CCh: potency relative to carbachol
T2 construct: expressed in transfected cells; host or cells: A9L cells (gift from Professor W Messer)
T2 sequence (P20309 whole entry): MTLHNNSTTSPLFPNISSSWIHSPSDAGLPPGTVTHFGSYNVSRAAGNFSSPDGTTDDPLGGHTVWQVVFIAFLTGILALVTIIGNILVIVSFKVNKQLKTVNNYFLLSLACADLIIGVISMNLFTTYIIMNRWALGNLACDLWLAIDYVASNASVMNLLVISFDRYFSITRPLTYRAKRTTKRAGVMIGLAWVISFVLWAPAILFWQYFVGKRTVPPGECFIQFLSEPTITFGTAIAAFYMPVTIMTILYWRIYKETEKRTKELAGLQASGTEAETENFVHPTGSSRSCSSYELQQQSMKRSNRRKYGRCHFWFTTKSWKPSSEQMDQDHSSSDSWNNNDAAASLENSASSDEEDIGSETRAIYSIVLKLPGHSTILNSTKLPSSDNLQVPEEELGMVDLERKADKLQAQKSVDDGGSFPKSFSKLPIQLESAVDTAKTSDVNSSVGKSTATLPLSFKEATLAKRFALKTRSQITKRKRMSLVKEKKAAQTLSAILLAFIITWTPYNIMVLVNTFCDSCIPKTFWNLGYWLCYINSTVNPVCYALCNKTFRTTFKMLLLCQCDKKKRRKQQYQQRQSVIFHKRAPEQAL
Protocol: as §1, §2, §3

[3] = tested on: apomorphine induced climbing; assay: Apomorphine induced climbing model of psychosis; assay type: in vivo, CD-I mice; conditions: mice, sc
Protocol: As described in Costall et. al. European Journal of Pharmacology 1978, 50, 39. individual CD-I mice, 1-2 months old, were placed in a cylindrical wire mesh cage (13.2 cm high×13.2 cm diameter) constructed of steel wire 1 mm thick spaced at 1.2 cm^2. Cylinders were placed in a standard OptiMICE mouse cage (29×32×9×29 cm wide and 14 cm high) with adequate wood chip bedding provided. Observations of climbing (defined as 3 or more paws off the ground) were carried out every 5 minutes at a duration of 1 minute for 30 minutes. Animals were injected subcutaneously under isoflurane anesthesia with test compounds, reference compounds, which included clozapine, haloperidol, olanzapine and xanomeline, or PBS as a control. This was followed 5 minutes later by 2 mg/kg apomorphine hydrochloride. All drugs were dissolved in PBS or a mixture of (by volume) 96% PBS and 4% hydroxypropyl-beta-cyclodextrin, and dosed at a rate of 5 ml per kilogram of body weight. Following injections, animals were replaced in the mesh cages and observed for climbing (defined as 3 or more paws off the ground) every 5 minutes for a duration of 1 minute for 60 minutes after dosing.

[4] = tested on: pooled male human liver microsomes; assay: Metabolism by human liver microsomes; assay type: in vitro ADME; conditions: for extent of metabolism in human liver microsomes: 6 hours incubation; for rate of metabolism compared with the other enantiomer: human liver microsomes, as also in rat liver microsomes and FMO Supersomes
Protocol: Compounds were incubated with pooled male human liver microsomes (BD Biosciences, #452172) and an NADP-regenerating system in a phosphate buffer (pH 7.4) for a total of 6 hours. Aliquots were removed every 2 hours, and 1% formic acid was added to halt the reaction. Samples were centrifuged, filtered through 0.2 micron spinfilter and the amount of each compound in the supernatants was quantitated using LC/MS/MS.

[5] = tested on: pooled male Sprague-Dawley rat liver microsomes; assay: Metabolism by rat liver microsomes; assay type: in vitro ADME; conditions: 6 hours incubation
Protocol: Compounds were incubated with pooled male Sprague-Dawley rat liver microsomes (BD Biosciences, #452501) and an NADP-regenerating system in a phosphate buffer (pH 7.4) for a total of 6 hours. Aliquots were removed every 2 hours, and 1% formic acid was added to halt the reaction. Samples were centrifuged, filtered through 0.2 micron spinfilter and the amount of each compound in the supernatants was quantitated using LC/MS/MS.

[6] = PAMPA test

Compound: Cc1noc([C@@H]2CCCN[C@@H]2C)n1 [Compound 108]
- huM1/A9L Smax [1]: 41%
- huM1/A9L ED50 relative to CCh [1]: −− (potency <0.1x CCh)
- huM3/A9L Smax [2]: 32%
- huM3/A9L ED50 relative to CCh [2]: inactive

Compound: CCc1noc(C2CCCNC2)n1 (stereo not shown) [Compound 128, 3-ethyl-5-(piperidin-3-yl)-1,2,4-oxadiazole, reference compound]
- huM1/A9L Smax [1]: 15%
- huM1/A9L ED50 relative to CCh [1]: inactive
- huM3/A9L Smax [2]: <14%
- huM3/A9L ED50 relative to CCh [2]: inactive

Compound: [2H]C([2H])([2H])c1noc(C2CCCNC2)n1 (single isomer, unassigned) [Compound 89, 3-(methyl-d3)-5-(piperidin-3-yl)-1,2,4-oxadiazole]
- huM1/A9L Smax [1]: 90%
- huM1/A9L ED50 relative to CCh [1]: + (potency 2-10x CCh)
- huM3/A9L Smax [2]: 86%
- huM3/A9L ED50 relative to CCh [2]: +/− (potency 0.5-2x CCh)
- activity in the apomorphine induced climbing model [3]: potent and effective
- extent of metabolism in human liver microsomes [4]: metabolized significantly less in human liver microsomes than in rat liver microsomes
- rate of metabolism compared with the other enantiomer [4]: metabolized faster than the enantiomers
- extent of metabolism in rat liver microsomes [5]: far more stable than compounds 126 and 127

Compound: Nc1noc(C2CCCNC2)n1 (stereo not shown) [Compound 111, 3-Amino-5-(piperidin-3-yl)-1,2,4-oxadiazole]
- huM1/A9L Smax [1]: 97%
- huM1/A9L ED50 relative to CCh [1]: + (potency 2-10x CCh)
- huM3/A9L Smax [2]: 20%
- huM3/A9L ED50 relative to CCh [2]: +/− (potency 0.5-2x CCh)

Compound: Cc1noc([C@@H]2CNC[C@@H](C)C2)n1 [Compound 105]
- huM1/A9L Smax [1]: 18%
- huM1/A9L ED50 relative to CCh [1]: inactive
- huM3/A9L Smax [2]: 14%
- huM3/A9L ED50 relative to CCh [2]: inactive

Compound: Cc1noc([C@H]2CNC[C@@H](C)C2)n1 [Compound 104]
- huM1/A9L Smax [1]: 9%
- huM1/A9L ED50 relative to CCh [1]: inactive
- huM3/A9L Smax [2]: 20%
- huM3/A9L ED50 relative to CCh [2]: inactive

Compound: Cc1noc(C2CCCNC2)n1 (single isomer, unassigned) [Compound 84, 3-methyl-5-(piperidin-3-yl)-1,2,4-oxadiazole]
- huM1/A9L Smax [1]: 129%
- huM1/A9L ED50 relative to CCh [1]: + (potency 2-10x CCh)
- huM3/A9L Smax [2]: 66%
- huM3/A9L ED50 relative to CCh [2]: +/− (potency 0.5-2x CCh)
- extent of metabolism in human liver microsomes [4]: metabolized significantly less in human liver microsomes than in rat liver microsomes
- extent of metabolism in rat liver microsomes [5]: far more stable than compounds 126 and 127

Compound: Cc1noc([C@H]2CC[C@H](C)NC2)n1 [Compound 103]
- huM1/A9L Smax [1]: 15%
- huM1/A9L ED50 relative to CCh [1]: inactive
- huM3/A9L Smax [2]: 34%
- huM3/A9L ED50 relative to CCh [2]: inactive

Compound: Cc1noc(C2CCNC2)n1 (stereo not shown) [Compound 115, 3-methyl-5-(pyrrolidin-3-yl)-1,2,4-oxadiazole]
- huM1/A9L ED50 relative to CCh [1]: + (potency 2-10x CCh)
- huM3/A9L ED50 relative to CCh [2]: − (potency <0.5-0.1x CCh)

Compound: Cc1noc(C2CCC(C)NC2)n1 (stereo not shown) [Compound 102, 3-Methyl-5-(6-methylpiperidin-3-yl)-1,2,4-oxadiazole]
- huM1/A9L Smax [1]: 14%
- huM1/A9L ED50 relative to CCh [1]: inactive
- huM3/A9L Smax [2]: 18%
- huM3/A9L ED50 relative to CCh [2]: inactive

Compound: Cc1noc(C2CCCN(C)C2)n1 (stereo not shown) [Compound 86, 3-Methyl-5-(1-methylpiperidin-3-yl)-1,2,4-oxadiazole]
- huM1/A9L Smax [1]: 20%
- huM1/A9L ED50 relative to CCh [1]: inactive
- huM3/A9L Smax [2]: 20%
- huM3/A9L ED50 relative to CCh [2]: inactive

Compound: [2H]C([2H])([2H])c1noc(C2CCCNC2)n1 (single isomer, unassigned) [Compound 90, 3-(methyl-d3)-5-(piperidin-3-yl)-1,2,4-oxadiazole]
- huM1/A9L Smax [1]: 81%
- huM1/A9L ED50 relative to CCh [1]: +/− (potency 0.5-2x CCh)
- huM3/A9L Smax [2]: 76%
- huM3/A9L ED50 relative to CCh [2]: −− (potency <0.1x CCh)
- extent of metabolism in human liver microsomes [4]: metabolized significantly less in human liver microsomes than in rat liver microsomes
- extent of metabolism in rat liver microsomes [5]: far more stable than compounds 126 and 127

Compound: Cc1noc(C2(F)CCCNC2)n1 (stereo not shown) [Compound 118, 5-(3-fluoropiperidin-3-yl)-3-methyl-1,2,4-oxadiazole]
- huM1/A9L ED50 relative to CCh [1]: − (potency <0.5-0.1x CCh)
- PAMPA (? × 106) [6]: 16.3 ? × 106
- rate of crossing the lipid layer in the PAMPA test [6]: highest rate of penetration
- huM3/A9L ED50 relative to CCh [2]: −− (potency <0.1x CCh)

Compound: Cc1noc(C2CCCNC2)n1 (single isomer, unassigned) [Compound 83, 3-methyl-5-(piperidin-3-yl)-1,2,4-oxadiazole]
- huM1/A9L Smax [1]: 147%
- huM1/A9L ED50 relative to CCh [1]: +/− (potency 0.5-2x CCh)
- huM3/A9L Smax [2]: 47%
- huM3/A9L ED50 relative to CCh [2]: − (potency <0.5-0.1x CCh)
- activity in the apomorphine induced climbing model [3]: potent and effective
- extent of metabolism in human liver microsomes [4]: metabolized significantly less in human liver microsomes than in rat liver microsomes
- rate of metabolism compared with the other enantiomer [4]: metabolized faster than the enantiomers
- extent of metabolism in rat liver microsomes [5]: far more stable than compounds 126 and 127

Compound: Cc1noc([C@H]2CCCN[C@@H]2C)n1 [Compound 109]
- huM1/A9L Smax [1]: 3%
- huM1/A9L ED50 relative to CCh [1]: inactive
- huM3/A9L Smax [2]: 20%
- huM3/A9L ED50 relative to CCh [2]: inactive
